The text below walks through data of patent US5196568A, “Compounds useful in enzymatic resolution systems and their preparation” (priority 1988, dated 1993).

Structures can show the parent of a compound that is named as a salt.

The target of data set [1] is T1, Protease VIII "Subtilopeptidase A" (subtilisin Carlsberg) (Enzyme B) (Bacillus licheniformis, UniProt P00780).
T1 sequence (P00780 106-379): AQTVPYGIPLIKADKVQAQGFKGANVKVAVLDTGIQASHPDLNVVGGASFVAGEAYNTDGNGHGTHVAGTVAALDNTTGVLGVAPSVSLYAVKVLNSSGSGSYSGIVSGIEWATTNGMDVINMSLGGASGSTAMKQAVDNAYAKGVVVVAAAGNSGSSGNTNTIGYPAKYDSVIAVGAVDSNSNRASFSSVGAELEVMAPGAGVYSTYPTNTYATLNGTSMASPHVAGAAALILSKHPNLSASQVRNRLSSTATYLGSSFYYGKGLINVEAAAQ
Description: Homogeneous aqueous enzymatic resolution with Enzyme B. The format is biochemical.

Data set [2] deals with Protease XXIII from Aspergillus oryzae (Enzyme A). Description: Homogeneous aqueous enzymatic resolution (ester hydrolysis) with Enzyme A. The format is biochemical. On the procedure: No further purification was performed.
For data set [3] the following is noted: cited from earlier work.
Data set [4] relates to lipase from Candida cylindracea (Meito Sangyo, Lipase OF). The data set is described as follows: Activity of Lipase OF against the ester. It counts as biochemical.
Data set [5] has as its system protease Prozyme 6 (Enzyme F). Description: Homogeneous aqueous enzymatic resolution with Enzyme F. The format is biochemical, Aspergillus oryzae. The note with it: for Conversion in Homogeneous Aqueous Reaction System: 0.5M ester, pH 7.0, 30 C. On the procedure: The enzymatic reaction mixtures were capped and briefly shaken until all the substrate had dissolved, and the enzyme had completely dissolved or dispersed. […] Evaporation of the ether left a white solid. The result is summarized below in Table 11 Rotations were measured at c=1 in CHCl3.
The enzymatic reaction mixtures were capped and briefly shaken until all the substrate had dissolved, and the enzyme had completely dissolved or dispersed. […] Evaporation of the ether left a white solid. Rotations were measured at c=1 in CHCl3.
The reaction was started by adding 100 mg of the protease (F) from the fungus Aspergillus oryzae (from Amano Enzyme Corporation, Prozyme 6, 60,000 units per mg of solid).
After 20 hours at room temperature, the solution was acidified to pH 2 and extracted with 3 volumes of diethyl ether. The aqueous phase was saved for subsequent workup. The ether phase was washed with two volumes of distilled water and then one volume of saturated sodium chloride, and then it was dried over MgSO4 and subsequently evaporated to dryness. The resolved ibuprofen product recovered was 930 mg of white powder, indicating 45% conversion of racemic ester to acid. The optical rotation was -0.580° (measured at c=1 in ethanol), indicating the R isomer of ibuprofen.
35 mg of protease Enzyme F, as the commercial preparation Prozyme 6, were added to the aqueous solution. The reaction flask was capped, and briefly shaken until all the enzyme had dissolved or dispersed. […] The resulting mixture was diluted with one volume of water and was extracted with diethyl ether (2 times 200 ml). The ether layers were combined and backwashed with water (2 times 200 ml), saturated NaCl solution (200 ml), and then dried over MgSO4.
In this control run, a 0.5M ester solution of (1) was prepared in 325 ml of 0.1M sodium phosphate buffer (pH 7.0). The reaction was started by adding 3 gm of the above enzyme (F). The pH was controlled at 7.0 with 8.22M sodium hydroxide. After 6.49 hours at 30° C., 6.63 ml of hydroxide were added, indicating 37.7% conversion. The reaction was allowed to continue overnight and, after 23.1 hours, a total of 7.2 ml of sodium hydroxide were added, indicating 40.9% conversion.

In data set [6] the test system is protease Prozyme 6 (Enzyme F). The data set is described as follows: Asymmetric hydrolysis in an extractive dispersion reactor with Enzyme F. It counts as biochemical, Aspergillus oryzae. To be noted: 100 mg Prozyme 6, 3.38 gm ester in 100 ml buffer pH 7.0 and 100 ml hexane, 3.5 hours, room temperature. On the procedure: In this Example, the hexane was dispersed in the reaction vessel to extract the inhibitory ibuprofen acid as it is formed. The reaction was started by adding 100 mg of the protease from the fungus Aspergillus oryzae (from Amano Enzyme Corporation, Prozyme 6, 60,000 units per mg of solid).
After 3.5 hours at room temperature with vigorous stirring, the solution was acidified to pH 2 and extracted with 2 volumes of hexane. The aqueous phase was saved for subsequent workup. The hexane phase was dried over MgSO4 and evaporated to dryness. The resolved ibuprofen product so recovered consisted of 490 mg of white powder, indicating 24% conversion. The optical rotation was -0.568° (c=1.015 in ethanol), indicating the R isomer of ibuprofen.

Data set [7] deals with protease Prozyme 6 (Enzyme F). The data set is described as follows: Asymmetric hydrolysis in an extractive membrane reactor with Enzyme F. It counts as biochemical, Aspergillus oryzae. From the text: Hexane was recirculated through the lumen or bores of the fibers in the module. The aqueous solution in the shell contained the enzyme and ester. While the cellulose membrane is water-wet, the membrane rejects the macromolecular enzyme (molecular weight 18,000). Therefore, the enzyme resides solely in the aqueous ester solution. As the ibuprofen acid was formed, it was extracted into the hexane phase, thereby reducing the effect of product (ibuprofen acid) inhibition on the activity of the enzyme.
The aqueous phase used to extract the ibuprofen acid from hexane in this module contained 0.1 M sodium carbonate buffer at pH 9.5. The pH was maintained at this value by the addition of 8.22M sodium hydroxide as required.
In this Example, the aqueous stream in the extractive membrane reactor module consisted of a solution of the sulfomethyl ester of ibuprofen (1), which solution was prepared by adding 32.51 gm of the sodium salt of the ester (at 75% chemical purity) to 1000 ml of 0.1M sodium phosphate buffer (pH 7.0). The reaction was started by adding 2 gm of the protease (F) from the fungus Aspergillus oryzae (from Amano Enzyme Corporation, Prozyme 6, 60,000 units per […] of solid). Reaction progress was followed by automatic titrimetry using a pH-stat.
The pH 9.5 solution was then acidified to pH 2 and extracted with 2 volumes of t-butyl methyl ether. The ether phase was first washed with two volumes of distilled water, then dried over MgSO4. and subsequently evaporated to dryness. The resolved ibuprofen product was recovered as about 6 gm of a white powder.
The optical rotation of the recovered product was measured by polarimetry; the experimentally determined value for [α]D was -56.7° (measured at c=0.815 in ethanol), thereby indicating the R isomer of ibuprofen. The sample was also analyzed by chiral HPLC using a Bakerbond DNBPG (covalent) column (4.6×250 mm), with 96.9% hexane:3.0% 2-propanol:0.1% acetonitrile as the mobile phase at 2 ml/min after derivatization with napthalene amine. The detector was a UV spectrophotometer set at 223 nm. The retention times for the S and R ibuprofen acids were 18.5 and 20.0 min, respectively. The optical purity or enantiomeric excess of this R ibuprofen sample as determined by this chiral HPLC procedure was 99.3% (i.e., enantiomeric excess of R ibuprofen).
The aqueous phase at pH 7.0 (as recovered from the extractive membrane reactor) was mixed with 280 gm of sodium chloride to salt out the remaining unconverted ester. The ester was filtered, washed with saturated sodium chloride, and air dried. 12.8 gm of ester were recovered in this manner. […] The optical rotation (as measured by polarimetry) was [α]D =+57.4° (c=1.29 in ethanol), indicating the S isomer of ibuprofen. […]

Data set [8] has as its system Pig Liver Esterase (E). Description: Homogeneous aqueous enzymatic resolution with Enzyme E. It counts as biochemical. To be noted: 30 mg Pig Liver Esterase.
Data set [9] addresses T2, Protease XXVII "Nagarse" (Enzyme D) (Bacillus amyloliquefaciens, UniProt P00782).
T2 construct: purchased Protease XXVII
T2 sequence (P00782 108-382): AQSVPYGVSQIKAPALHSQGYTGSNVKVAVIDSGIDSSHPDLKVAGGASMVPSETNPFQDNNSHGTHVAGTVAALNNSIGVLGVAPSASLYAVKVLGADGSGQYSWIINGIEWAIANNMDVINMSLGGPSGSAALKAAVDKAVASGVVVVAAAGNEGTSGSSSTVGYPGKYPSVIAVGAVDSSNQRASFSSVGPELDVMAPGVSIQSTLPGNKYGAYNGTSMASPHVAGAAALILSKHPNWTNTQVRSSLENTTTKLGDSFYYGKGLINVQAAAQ
Description: Homogeneous aqueous enzymatic resolution with Enzyme D. The format is biochemical. To be noted: acid product (R); 150 mg enzyme D, pH 7.8.

Data set [10] is described as follows: Solubility of esters, absorbance of saturated solutions at 262 nm. It counts as physicochemical. To be noted: saturated solution, pH 7 (50 mM phosphate buffer), room temperature.
The test system of data set [11] is Protease XVI from Bacillus subtilis (Enzyme C). Description: Homogeneous aqueous enzymatic resolution with Enzyme C. The note with it: 100 mg enzyme C, 10 mmol ester in 100 ml 0.2M phosphate buffer pH 7.0, 20 hours, 20-22 C. It counts as biochemical.

Consider `CC(CSC(=O)c1ccccc1)C(=O)OCS(=O)(=O)O` (racemic) [Compound 16, Potassium Salt of the Sulfomethyl Ester of (±)-S-3-Benzoylthio-2-methylpropanoic Acid], for which the “% e.e.” value in [1] (acid product (S), 100 mg enzyme B, pH 7.0, 25 C, 18 hours) was 10%; in [2] (acid product (S), 100 mg enzyme A, pH 7.0, 25 C, 18 hours), 3%. In addition, in [2] (100 mg enzyme A, 10.0 mmol ester in 100 ml 2M Na3PO4 buffer pH 7.0, 25 C, 18 hours), the “% CONVERSION” value is recorded as 53%.
`COc1ccc2cc([C@H](C)C(=O)O)ccc2c1` (stereo in doubt) [naproxen, (+)-S-2-(6-methoxy-2-naphthyl)propanoic acid]: the “times more therapeutically potent than its R(-) counterpart” value in data set [3] (S(+) enantiomer vs R(-)) is reported as 28 times.
Consider `CC(C)Cc1ccc(C(C)C(=O)OCS(=O)(=O)O)cc1` (centres unmarked) [Compound 1, Sodium Salt of 4-Sulfomethyl Ester of 2-(4-Isobutylphenyl)propanoic Acid], for which the “activity of the lipase against the ester” value in data set [4] is “inactive”. For the same compound, in data set [5] (100 mg Prozyme 6, 3.22 gm ester in 100 ml 0.2M sodium phosphate pH 7.0, 20 hours, room temperature), the “conversion of racemic ester to acid” value is listed as 45%. Further, the conversion in data set [5] (3 gm enzyme F, 0.5M ester in 325 ml 0.1M sodium phosphate pH 7.0, 30 C, after 6.49 hours) worked out at 37.7%; in [6], 24%. Besides, the “Conversion in Homogeneous Aqueous Reaction System” value came to 40.9% in data set [5] (3 gm enzyme F, 23.1 hours) and 37.7% in data set [5] (3 gm enzyme F, Time 6.75 hrs). Also, the “% e.e.” value in data set [2] (acid product (R), 100 mg enzyme A, pH 7.0, 20 hours, 20-22 C) is reported as greater than 99%. Moreover, the “conversion of the racemic ester to the acid” value in data set [7] (enzyme in aqueous phase and membrane pores, 3 gm Prozyme 6, 0.5M ester, pH 7.0, 6.75 hours at 30 C) is on record as 48.3%. Also, the “conversion of the racemic ester to ibuprofen acid” value in data set [7] (enzyme in aqueous phase only (cellulose dialysis fibers), 2 gm Prozyme 6, 32.51 gm ester in 1000 ml pH 7.0, hexane, 6.3 hours, room temperature) was found to be 50%. In addition, the “enantiomeric excess of R ibuprofen by chiral HPLC (acid product)” value in data set [7] (enzyme in aqueous phase only, 6.3 hours) is listed as 99.3%. Moreover, the “enantiomeric excess of S ibuprofen by chiral HPLC (from unconverted ester)” value in [7] (enzyme in aqueous phase only, 6.3 hours, ester hydrolysed at pH 12) amounted to 98.9%.
On to `CC(C)Cc1ccc(C(C)C(=O)OCCS(=O)(=O)O)cc1` (centres unmarked) [Compound 2, Sodium Salt of 2-Sulfoethyl Ester of 2-(4-Isobutylphenyl)propanoic Acid], for which the “% e.e.” value in data set [1] (acid product (R), 150 mg enzyme B, 125 ml buffer pH 7.0, 18 hours) is given as 90.0%; in data set [2] (acid product (R), 150 mg enzyme A, 125 ml buffer pH 7.0, 18 hours), greater than 99%.
In the case of `CC(C)Cc1ccc(C(C)C(=O)OCCCS(=O)(=O)O)cc1` (centres unmarked) [Compound 3, Potassium Salt of 3-Sulfopropyl Ester of 2-(4-Isobutylphenyl)propanoic Acid], the “% CONVERSION” value in data set [8] (0.010 mol ester in 100 ml 0.2M sodium phosphate buffer at pH 7.8 (heading: pH 7.0)) is on record as 12.1%; in data set [2] (100 mg enzyme A, 10 mmol ester in 100 ml 0.2M phosphate buffer pH 7.0, 20 hours, 20-22 C) it was 50.0%. Also, the “% e.e.” value in data set [8] (acid product (R), pH 7.8 (heading: pH 7.0)) stood at 88.0%; in data set [9] it was 91.0%. In addition, the “conversion of the racemic ester to acid” value in [2] (1.00 gm enzyme A, about 1 M ester, 0.1M potassium phosphate pH 7.0, 23.9 hours, room temperature, by NaOH titration) is listed as 29%.
What is called Solubility is the dissolved amount per volume that the medium holds. In turn, `CC(C)Cc1ccc(C(C)C(=O)OCCCCS(=O)(=O)O)cc1` (centres unmarked) [Compound 4, Potassium Salt of 4-Sulfobutyl Ester of 2-(4-Isobutylphenyl)propanoic Acid] showed a Solubility in data set [10] of 1130 mM. Besides, the “% CONVERSION” value in data set [11] is 22.0%.
For the compound `CC(C)Cc1ccc(C(C)C(=O)OCCOP(=O)(O)O)cc1` (centres unmarked) [Compound 5, Disodium Salt of the Phosphoric Acid Ester of the 2-Hydroxyethyl Ester of 2-(4-Isobutylphenyl)propanoic Acid], in [11], the “% CONVERSION” value was found to be 5.3%.
Turning to `CC(C)NCC(O)COc1cccc2ccccc12` [L-form of propranolol, propranolol], the “times more potent than the D-enantiomer” value in data set [3] (L-form vs D-enantiomer) was 100 times.
